Several values for one entry are separate records, joined by “and”; a condition that tells them apart may be missing. Identical values can stand only once.
System: P. falciparum 3D7 in RBCs, SYBR Green DNA fluorescence
Assay: antimalarial activity against intraerythrocytic 3D7 parasites – 3D7 strain, red blood cells, SYBR Green, cherry-picked, dose response (AID 652047)

Question: CNc1ccc2oc(C[C@H]3O[C@@]4(CC[C@H]3C)O[C@H]([C@H](C)C(=O)c3ccc[nH]3)[C@H](C)C[C@H]4C)nc2c1C(=O)O was tested. Which AC35 did it give?
Answer: 1.01 µM

Question: How did the AC35 turn out when O=C(NCC1CC1(Cl)Cl)Nc1ccc(Cl)c(Cl)c1 (stereo not given) was run?
Answer: 8.82 µM

Question: C=CCN(CC=C)C(=S)NC(=O)c1ccc(C)c(Br)c1 was tested. Which AC35 did it give?
Answer: 6.98 µM

Question: How did the AC35 turn out when Cc1ccoc1C(=O)Nc1cccc(Oc2ccccc2)c1 was run?
Answer: 10.4 µM

Question: How did the AC35 turn out when COc1ccc2[nH]c(=O)c(CN(Cc3cccnc3)C(=O)Nc3ccccc3)cc2c1 was run?
Answer: 17.5 µM

Question: With Oc1c(I)cc(Cl)c2cccnc12 as the compound, how does the AC35 read?
Answer: 2.33 µM

Question: Which AC35 does the source give for Oc1ccc(Br)cc1/C=N/Nc1ccccn1 here?
Answer: 2.68 µM

Question: For CCC(NC(=S)NCc1ccc(F)cc1)c1ccc(C(C)C)cc1 (stereo not given), which AC35 is on record?
Answer: 11.8 µM

Question: With Clc1ccc(COC(Cn2ccnc2)c2ccc(Cl)cc2Cl)c(Cl)c1 (stereo not given) as the compound, how does the AC35 read?
Answer: 1.2 µM and 1.52 µM

Question: Cc1[nH]n(-c2ccccc2)c(=O)c1/C=N/Nc1nncc(-c2ccccc2)n1 was tested. Which AC35 did it give?
Answer: 1.2 µM

Question: NC(=Nc1nc(-c2ccccn2)cc2ccccc12)c1ccccn1 was tested. Which AC35 did it give?
Answer: 0.0527 µM

Question: O=C(Nc1nnc(-c2cccs2)o1)c1cccc(Oc2ccccc2)c1 was tested. Which AC35 did it give?
Answer: 23 µM

Question: How did the AC35 turn out when Cc1c(C2(O)CCCCC2)[nH]c2ccc(C(F)(F)F)cc12 was run?
Answer: 27.4 µM

Question: How did the AC35 turn out when CCCCNc1c(-c2cccc(Sc3ccc(OC)cc3)c2)nc2ccccn12 was run?
Answer: 15.3 µM

Question: For CC1(C(=O)OCC(=O)Nc2ccc3ccccc3c2)CC1(Cl)Cl (stereo not given), which AC35 is on record?
Answer: 42.6 µM

Question: Which AC35 does the source give for Cc1cc(C)c(C(=O)CC(=O)c2cccnc2)c(C)c1 here?
Answer: 6.77 µM

Question: For O=C(NC(=S)N(CCc1ccccc1)CCc1ccccc1)c1ccco1, which AC35 is on record?
Answer: 12 µM

Question: CC1=CC(=O)C=C(C)C1=NOS(=O)(=O)c1ccccc1 was tested. Which AC35 did it give?
Answer: 17.4 µM

Question: Which AC35 does the source give for CC(C)(C)C(O)C(Cc1ccccc1Cl)n1cncn1 (stereo not given) here?
Answer: 25.7 µM

Question: Which AC35 does the source give for CN(C)c1nc(-c2ccccn2)nnc1-c1ccccc1 here?
Answer: 1.13 µM

Question: How did the AC35 turn out when O=C(N/N=C/c1ccc[nH]1)c1sc2ccccc2c1Cl was run?
Answer: 8.77 µM

Question: How did the AC35 turn out when Cc1nn(CCC#N)c(N)c1C1(O)C(=O)Nc2c(Cl)cc(Cl)cc21 (stereo not given) was run?
Answer: 16 µM

Question: For Cc1ccc(Sc2ccc(NC(=O)CCl)cc2)cc1C, which AC35 is on record?
Answer: 0.422 µM

Question: How did the AC35 turn out when Cc1nc(SCc2ccc(OCCC(C)C)cc2)n[nH]1 was run?
Answer: 16.5 µM

Question: How did the AC35 turn out when O=C(NCCC1=CCCCC1)c1c(O)nc2sccn2c1=O was run?
Answer: 17 µM

Question: For O=CC1=C(c2ccccc2)Oc2ccccc2O1, which AC35 is on record?
Answer: 8.24 µM

Question: How did the AC35 turn out when O=C1c2cc(F)ccc2-n2c1nc1ccccc1c2=O was run?
Answer: < 0.0235 µM

Question: For C=CCNC(=S)N1CCC(Cc2ccccc2)CC1, which AC35 is on record?
Answer: 43.5 µM

Question: Which AC35 does the source give for COc1ccccc1-c1sc2cc3c(cc2c1C#Cc1cncn1C)OCO3 here?
Answer: 2.48 µM

Question: Which AC35 does the source give for O=c1c2ccccc2nc(-c2ccc(-c3ccccc3)cc2)n1-c1ccncc1 here?
Answer: 3.6 µM

Question: Which AC35 does the source give for Clc1ccccc1C(c1ccccc1)(c1ccccc1)n1ccnc1 here?
Answer: 0.448 µM

Question: How did the AC35 turn out when CC(C)N1CCN(c2ccc(OCC3COC(Cn4cncn4)(c4ccc(Cl)cc4Cl)O3)cc2)CC1 (stereo not given) was run?
Answer: 3.77 µM

Question: How did the AC35 turn out when Cc1c(C(=O)O)cccc1-c1ccc(/C=N/Nc2ccc(Br)cc2)o1 was run?
Answer: 20.2 µM

Question: COc1ccc(O)c(C(=O)CC(=O)c2ccc(F)cc2)c1 was tested. Which AC35 did it give?
Answer: 16.1 µM

Question: How did the AC35 turn out when CC(/C=N/n1c(COc2ccccc2)n[nH]c1=S)=C\c1ccccc1 was run?
Answer: 37.3 µM

Question: Which AC35 does the source give for S=C(Nc1ccc(Oc2ccccc2)cc1)NC1CCCCCC1 here?
Answer: 12.7 µM

Question: With O=C(CSc1ccc(-c2ccccn2)nn1)NCc1ccc(F)cc1 as the compound, how does the AC35 read?
Answer: 28.7 µM

Question: CCCCCCn1c(=O)c(C(=O)Nc2ncccc2C)c(O)c2ccccc21 was tested. Which AC35 did it give?
Answer: 2.57 µM

Question: Which AC35 does the source give for O=C(c1ccccc1)c1coc2c1C(=O)c1ccccc1C2=O here?
Answer: 3.82 µM

Question: Which AC35 does the source give for CCCCNC(=S)N/N=C1\CCCCc2ccccc21 here?
Answer: 18.3 µM

Question: O=S1OC(c2ccccc2)c2cc(Cl)ccc21 (stereo not given) was tested. Which AC35 did it give?
Answer: 11.3 µM

Question: O=C(Nc1nnc(-c2ccccc2)o1)c1ccc(Cl)cc1 was tested. Which AC35 did it give?
Answer: 12.4 µM

Question: With c1ccc(CSc2ccc(-c3ccccn3)nn2)nc1 as the compound, how does the AC35 read?
Answer: 19 µM

Question: Which AC35 does the source give for C=C(C)COc1ccc(-c2[nH]ncc2-c2ccccc2)c(O)c1 here?
Answer: 2.91 µM

Question: How did the AC35 turn out when Cc1cccc(NC(=S)NC(C)CCc2ccccc2)c1 (stereo not given) was run?
Answer: 5.69 µM

Question: How did the AC35 turn out when CC(=O)NC(c1cccc([N+](=O)[O-])c1)c1ccc2cccnc2c1O (stereo not given) was run?
Answer: 2 µM

Question: For Clc1nc(-c2ccccn2)nc2scc(-c3ccccc3)c12, which AC35 is on record?
Answer: 2.34 µM

Question: Which AC35 does the source give for Cc1ccc(NS(=O)(=O)c2ccc(N3CCN(c4ccc(O)cc4)CC3)c([N+](=O)[O-])c2)c(C)c1 here?
Answer: 17.2 µM

Question: How did the AC35 turn out when CCCCC(=O)NC(c1ccco1)c1cc(Cl)c2cccnc2c1O (stereo not given) was run?
Answer: 1.48 µM

Question: Cc1ccc(NC(=O)CN(C)C(=O)c2cccnc2Nc2cccc(C(F)(F)F)c2)cc1 was tested. Which AC35 did it give?
Answer: 7.58 µM

Question: COc1ccc(-c2oc3ccccc3c2C#Cc2cncn2C)cc1 was tested. Which AC35 did it give?
Answer: 0.603 µM

Question: With O=C(O)c1ccccc1NC(c1ccccc1)c1ccc2cccnc2c1O (stereo not given) as the compound, how does the AC35 read?
Answer: 10.8 µM

Question: For Cc1cccc(Oc2nc(-c3ccccn3)nc3ccccc23)c1, which AC35 is on record?
Answer: 3.89 µM

Question: For O=[N+]([O-])c1ccc(Sc2cccc[n+]2[O-])c2nonc12, which AC35 is on record?
Answer: 0.657 µM

Question: With C=CCNc1nc(-c2ccccn2)nnc1-c1ccccc1 as the compound, how does the AC35 read?
Answer: 1.21 µM

Question: Which AC35 does the source give for O=c1cc(CSc2ccc(Cl)cc2)nc(-c2ccccn2)[nH]1 here?
Answer: 1.93 µM

Question: For CCOC(=O)c1cnc(-n2nc(C)cc2C)nc1NC1CCCC1, which AC35 is on record?
Answer: 2.6 µM

Question: Which AC35 does the source give for COc1cnc(-c2ccccn2)nc1Oc1ccc(C(C)(C)C)cc1 here?
Answer: 2.05 µM

Question: For Oc1c(CN2CCCC2)cc(COCc2ccccc2)c2cccnc12, which AC35 is on record?
Answer: 13.8 µM

Question: How did the AC35 turn out when O=C(COc1ccc([N+](=O)[O-])cc1)Nc1nc(-c2ccccn2)cs1 was run?
Answer: 6.63 µM
